Test results published in patent US6468537B1, “Localization of major peptide autoepitopes for nucleosome specific T cells of systemic lupus erythematosus” (The Board of Trustees of Northwestern University, priority 1999, dated 2002).

Columns and labels:
[1] = test system: short-term CD4+ T cell lines; test: IL-2 production by short-term CD4+ T cell lines in response to histone peptides (pepscan); assay type: cell-based, human
Protocol: Short-term T cell lines were rapidly thawed from liquid nitrogen and expanded in the presence of plate-bound anti-CD3 mAb, anti-CD28 mAb, and rIL-2 (20 units per milliliter). The expanded cells were transferred to fresh culture wells and rested by incubating in fresh medium for 10 to 14 days. For stimulation assays, 96 well plates were coated with 2 micrograms per milliliter of goat anti-mouse IgG antibodies overnight at 37° C. After washing the plates twice with Dulbecco's phosphate-buffered saline (dPBS), autologous and previously irradiated (3,000 rad) EBV-B cells (APC) were first added to each well at a concentration of 1×10^5 cells per well. The cells (APC) were cultured together with either a core histone peptide or a control peptide for 6 hours in HL-1 serum free medium (Bio Whittaker, Maryland). This procedure was followed by the addition to each well of CD4^+ T cells from the short-term lines at a concentration of 1×10^5 cells per well, and the addition of 0.5 micrograms per milliliter of a mouse monoclonal antibody (mAb) to human CD28. The final volume of the cultures was 200 microliters per well. Cells were co-cultured for 24 hours at 37° C. One-half the volume of supernatant was collected from each well for ELISA analysis of interleukin levels. Fresh medium (100 microliters) was added to cells, and the cells were incubated an additional 48 hours. [^3H] thymidine was added, and the cultures were incubated an additional 18 hours. Incorporated radioactivity was measured to quantitate T cell proliferation as described previously (Desai-Mehta et al., 1995, J. Clin. Invest. 95:53 1-541). HLA class II dependence of antigen-specific responses by the CD4^+ T cells was determined by adding to the co-cultures a blocking antibody from a panel of mAb to HLA class II molecules, as described previously (Desai-Mehta et al., 1995, J. Clin. Invest. 95:53 1-541).
IL-2 secreted by CD4^+ T cells in short term experiments was measured using an ELISA. Capture and biotinylated antibody pairs directed at human IL-2 and standards for use therein were purchased from PharMingen. […]

CD4+ T cell clone DD2 = test: IL-2 production by lupus Th cell clone DD2 in response to histone peptides; assay type: cell-based, human
Protocol: Short-term T cell lines were rapidly thawed from liquid nitrogen and expanded in the presence of plate-bound anti-CD3 mAb, anti-CD28 mAb, and rIL-2 (20 units per milliliter). The expanded cells were transferred to fresh culture wells and rested by incubating in fresh medium for 10 to 14 days. For stimulation assays, 96 well plates were coated with 2 micrograms per milliliter of goat anti-mouse IgG antibodies overnight at 37° C. After washing the plates twice with Dulbecco's phosphate-buffered saline (dPBS), autologous and previously irradiated (3,000 rad) EBV-B cells (APC) were first added to each well at a concentration of 1×10^5 cells per well. The cells (APC) were cultured together with either a core histone peptide or a control peptide for 6 hours in HL-1 serum free medium (Bio Whittaker, Maryland). This procedure was followed by the addition to each well of CD4^+ T cells from the short-term lines at a concentration of 1×10^5 cells per well, and the addition of 0.5 micrograms per milliliter of a mouse monoclonal antibody (mAb) to human CD28. The final volume of the cultures was 200 microliters per well. Cells were co-cultured for 24 hours at 37° C. One-half the volume of supernatant was collected from each well for ELISA analysis of interleukin levels. Fresh medium (100 microliters) was added to cells, and the cells were incubated an additional 48 hours. [^3H] thymidine was added, and the cultures were incubated an additional 18 hours. Incorporated radioactivity was measured to quantitate T cell proliferation as described previously (Desai-Mehta et al., 1995, J. Clin. Invest. 95:53 1-541). HLA class II dependence of antigen-specific responses by the CD4^+ T cells was determined by adding to the co-cultures a blocking antibody from a panel of mAb to HLA class II molecules, as described previously (Desai-Mehta et al., 1995, J. Clin. Invest. 95:53 1-541). […]
IL-2 secreted by CD4^+ T cells in short term experiments was measured using an ELISA. […]

SNF1 mice [2] = test: Chronic therapy of established glomerulonephritis with nucleosomal peptides; assay type: in vivo, mouse
Protocol: Six mice per group were injected intraperitoneally once each month with either a saline solution or a peptide solution comprising saline and 300 micrograms of one of the identified peptides. The endpoint of these experiments was the development of moribund state due to renal failure.

SNF1 mice [3] = test: Brief therapy with nucleosomal histone peptides (long-term experiments): incidence of severe nephritis; assay type: in vivo, mouse
Protocol: (§1) Long-term experiments used 12 week-old, autoimmune, but pre-nephritic SNF1 female mice. Nine mice per peptide test group were injected intravenously with either a saline (solution) or a peptide solution comprising saline and 300 micrograms of one of H2B10-33, H416-39, and H471-94. Each mouse received three subsequent injections of either the saline solution or one of the peptide solutions at two-week intervals. The mice were monitored weekly for proteinuria using an Albustix kit (VWR Scientific, Chicago, Ill.), and sacrificed upon the development of persistent proteinuria. Persistent protenuria was identified as an amount of protein in urine that is equivalent to or greater than 300 milligrams per deciliter, and is a primary indication of severe kidney disease and damage associated with nephritis. Sera were collected from each mouse and the IgG anti-nuclear autoantibodies determined. Blood urea nitrogen (BUN) was measured by Azostix (Miles, Ekhart, Ind.). Immune complex deposition and glomerulonephritis in the kidney were detected by staining with Hematoxylin and Eosin and anti-mouse Ig. These procedures were carried out as previously described (Mohan et al., 1993, J. Exp. Med. 177:1367; Mohan et al., 1995, J. Immunol. 154:1470; Eastcott et al., 1983, J. Immunol. 131:2232; Adams et al., 1991, Proc. Natl. Acad. Sci. USA 88:11271; Kalled et al., 1998, J. Immunol. 160:2158; Gaynor et al., 1997, Proc. Natl. Acad. Sci. USA 94:1955).

CD4+ T cells = test: Helper assay: CD4+ T cells from peptide-injected mice co-cultured with B cells from unmanipulated SNF1 mice; assay type: cell-based, mouse
Source text: (§2) Levels of IgG class autoantibodies specific for single-stranded DNA (ssDNA), double-stranded DNA (dsDNA), histones, and nucleosomes (i.e. histone-DNA complexes), in culture supernatants or serum, were estimated using an enzyme-linked immunosorbent assay (ELISA). Anti-DNA mAbs 564 and 205 were used to generate standard curves as previously described (Mohan et al., 1993, J. Exp. Med. 177:1367; Kaliyaperumal et al., 1996, J. Exp. Med. 183:2459; Mohan et al., 1995, J. Immunol. 154:1470; Adams et al., 1991, Proc. Natl. Acad. Sci. USA 88:11271). Sera were diluted 1:400 and heat-inactivated before use according to standard procedures. Sera from normal SWR mice were used as the negative control. Total polyclonal IgG levels were also measured by ELISA as previously described (Mohan et al., 1993, J. Exp. Med. 177:1367; Mohan et al., 1995, J. Immunol. 154:1470; Adams et al., 1991, Proc. Natl. Acad. Sci. USA 88:11271).
T-cells from peptide-treated mice used in the short-term experiments were co-cultured with splenic B cells from unmanipulated mice. Conversely, T cells from unmanipulated SNF1 mice (i.e. control mice) were co-cultured with splenic B cells from tolerized (i.e. peptide-injected) mice. Each of the cell types was seeded in 24-well plates at an initial concentration of 2.5×10^6 cells per well. Cultures were maintained for 7 days, as previously described (Datta et al., 1987, J. Exp. Med. 165:1252; Sainis and Datta, 1988, J. Immunol. 140:2215). B cells from unmanipulated or tolerized animals were cultured alone to measure baseline autoantibody production. Culture supernatants were collected, freeze-thawed, and assayed by ELISA for antibodies against ssDNA, dsDNA, histones and nucleosomes. For studies involving stimulation of B cells by soluble CD40 ligand, CD40L-CD8 fusion protein (Wortis et al., 1995, Proc. Natl. Acad. Sci. USA 92:3348) was added to either the co-culture wells or the wells with B cells alone and maintained in the medium for the entire 7-day culture period.

SNF1 mice [4] = test: Short-term tolerance experiments: grading of lupus nephritis at sacrifice; assay type: in vivo, mouse; conditions: short-term batch, at sacrifice two weeks after last injection
Protocol: Short-term experiments were conducted to test the early immunological consequences of tolerance therapy. Twelve week old SNF1 mice were injected once a week for four weeks with either a saline solution or a peptide solution comprising saline and 300 micrograms of one of the above described peptides. Mice were sacrificed at two weeks after the last injection. Presence of autoimmune T and B cells was analyzed and renal lesions were graded.

SNF1 mice [5] = test: IgG anti-nuclear autoantibody and total IgG levels in sera of peptide-injected mice (ELISA); assay type: in vivo, mouse; conditions: sera 1:400
Protocol: as §1, §2

[6] = test system: pathogenic Th clones from SNF1 mice; test: Stimulation of nucleosome-specific pathogenic Th clones from SNF1 mice by eluted/synthetic peptides; assay type: cell-based, mouse; conditions: A20 or splenic B+Mφ as APC
Protocol: Fresh splenic, CD4^+ T cells (5×10^5/well) were co-cultured in triplicate wells at an initial concentration of 5×10^5 cells per well, with 10^6 cells per well of either irradiated B+Mφ or mitomycin-C treated A20 APC. Varying concentrations of either control or test peptides were added and the cultures were adjusted to 200 microliters final volume of HL-1 serum-free medium (Hycor Biomedical Inc., Irvine, Calif.) cultures were incubated for 96 hours in flat bottom 96-well plates, and at 18 hours prior to harvesting the cells, 1 microcurie of 3H-Thymidine was added to each well. The incorporated radioactivity was measured by scintillation counting. The Stimulation Index (SI) was calculated by dividing the mean counts per minute (cpm) incorporated in co-cultures of T cells and APC with test peptide by the mean cpm incorporated in control peptide co-cultures. In the case of cytokine assays, experiments were carried out as described for the proliferation assays except that the culture supernatants were removed from duplicate co-culture wells after 24-46 hours of incubation and cytokine assays were performed.
An aliquot of 50 microliters from each HPLC fraction was assayed for stimulating ability as described above. Four characterized Th clones were used as indicators of cytokine secretion (IL-2 and/or IL-4) in response to the peptide fractions, using A20 or splenic B+Mψ as APCs (Adams, et al., 1991, Proc. Natl. Acad. Sci. USA 88:11271-11275; Shi, et al., 1998, J. Exp. Med. 187:367-378). […] Only two out of one hundred fractions tested were able to stimulate Th cell clones. […] The latter was further separated as described, and tested for active fractions of HPLC purified peptides.. Three naturally processed and presented, stimulatory epitopes were identified using these procedures. The sequences of the peptides are as follows: SQKEEEEGAQREKE (EP-1, SEQ ID NO: 23); DWMEEEHGAQREKE (EP-2, SEQ ID NO: 24); and […] (EP-3, or H522-42, SEQ ID NO: 25). The first two peptides were homologous to sequences in a transcription factor, BRN-3, which is identical in chicken, mice and humans (GenBank). […] EP-1 is highly homologous to EP-2, but it also matched a sequence in cytomegalovirus envelope protein at aa position 57-70. Most likely these peptides are derived from some transcription factor in the chromatin that was incubated with the APC. The third sequence (EP-3) was derived from histone H5 (aa position 22-42) in chicken nucleosome, which is homologous to histone H1 sequence of mice and humans at amino acid position 22-42 ([…], SEQ ID NO:26). […] Therefore, the mouse H122-42 is the autoantigenic peptide in mice and is also referred to herein as EP-3. Nested sequences and unrelated sequences that were obtained in the active fractions from the eluates were also synthesized and re-tested.

SNF1 mice [7] = test: Acceleration of SLE-associated nephritis by immunization with eluted peptides in adjuvant; assay type: in vivo, mouse; conditions: for onset/rate of disease relative to control group (CFA alone or OVA peptide in CFA): immunization from 12 weeks
Source text: The animals received three more injections at two weeks interval with 50 micrograms of either an eluted peptide or the control peptide absorbed on alum (Pierce Chemical Co., Rockford, Ill.).

Substance: H449-63: histone peptide of H4, positions 49-63 (LIYEETRGVLKVFLE)
- HLA class II dependence of peptide presentation ([1]; short-term T cell line L-EB, autologous EBV-B cells, blocking mAb): inhibited mainly by anti-DR mAb

Substance: anti-CD3: Anti-CD3 antibody (mAb) produced by hybridoma OKT3, positive control stimulus [reference compound]
- IL-2 production by T cell clone DD2 (CD4+ T cell clone DD2; background with APC without peptide 132): 554 picograms per milliliter

Substance: H2B10-33: histone 2B protein (H2B) amino acids 10-33
- survival (SNF1 mice [2]; by 26 months age): only one mouse in the H2B10-33 group survived
- mice alive (SNF1 mice [2]; two months after start of treatment (all controls dead), 300 micrograms i.p. monthly, 18-month old mice): 66.6%
- incidence of severe nephritis (SNF1 mice [3]; at 28 weeks of age, 300 micrograms i.v., four injections at two-week intervals from 12 weeks): did not develop disease
- incidence of severe nephritis (SNF1 mice [3]; at 36-38 weeks of age, control 88.8%): 33.3%
- reduction of anti-ssDNA antibody production relative to control group (CD4+ T cells; T cells from treated mice + B cells from unmanipulated mice): approximately 55%
- decrease in anti-dsDNA antibody production relative to control group (CD4+ T cells; T cells from treated mice + B cells from unmanipulated mice, 7 days): five fold decrease
- increase in help for anti-dsDNA antibody production following addition of rIL-2 (CD4+ T cells; rIL-2 added at beginning of 7-day culture): did not exhibit any increase
- Percent Incidence, Grading of Lupus Nephritis 1+ (SNF1 mice [4]): 66.6
- Percent Incidence, Grading of Lupus Nephritis 2+ (SNF1 mice [4]): 33.3
- serum anti-dsDNA antibody level (SNF1 mice [5]; at 36 weeks of age, control 26±3.2): 14.0±3.2 units
- serum anti-dsDNA antibody level (SNF1 mice [5]; at the start of treatment (12 weeks), control 5.5±0.3): 7.7±0.9 units

Substance: H355-69: 15-mer nucleosomal histone H3 peptide, positions 55-69 (QKSTELLIRKLPFQR; UniProt P68431 56-70, looked up, fragment)
- stimulation of DD2 (CD4+ T cell clone DD2; autologous EBV-B cells pulsed with peptide as APC): stimulated DD2 very weakly

Substance: SQKEEEEGAQREKE (Histone fragment) [EP-1]
- stimulation of pathogenic Th clones [6]: stimulatory
- onset/rate of disease relative to control group (CFA alone or OVA peptide in CFA) (SNF1 mice [7]): did not result in any increase in the rate of disease

Substance: DWMEEEHGAQREKE (DWMEEEEGAQREKE; Histone fragment) [EP-2]
- stimulation of pathogenic Th clones [6]: stimulatory
- mice developed disease (SNF1 mice [7]; by 20 weeks of age): 60%
- onset/rate of disease relative to control group (CFA alone or OVA peptide in CFA) (SNF1 mice [7]): developed severe nephritis earlier

Substance: H416-30: 15-mer histone H4 peptide, positions 16-30
- IL-2 production response, percentage of maximal response stimulated by anti-CD3 mAb ([1]; average of 10 lupus T cell lines, baseline 22%): 23±2.6%
